“Also recorded” adds a separate entry of the source.
Test system: influenza virus
Assay type: cell-based

| Compound | susceptibility of passaged versus unpassaged virus (resistance) |
| --- | --- |
| CC(=O)c1c(O)c(C)c(O)c(Cc2c(O)c3c(c(C(=O)/C=C/c4ccccc4)c2O)OC(C)(C)C=C3)c1O [rottlerin] | No difference; also recorded: emergence of resistant viruses was not observed |
| N#Cc1cc2c(OCC(O)CN3CCN(C(c4ccccc4)c4ccccc4)CC3)cccc2[nH]1 (centres unmarked) [SDZ-201106] | No difference; also recorded: emergence of resistant viruses was not observed |

— patent US8629283B2, “Compounds that modulate negative-sense, single-stranded RNA virus replication and uses thereof” (Icahn School of Medicine at Mount Sinai, priority 2008, dated 2014)
